The values below come from ChEMBL document CHEMBL2157927, “Imidazotriazinone compounds: patent highlight” (ACS Med Chem Lett, 2012).

Assay [1] can be described thus: Inhibition of PDE9 by spectrophotometric analysis.
The nature of assay [2]: Selectivity ratio of IC50 for PDE1A to IC50 for PDE9.
The nature of assay [3]: Selectivity ratio of IC50 for PDE1B to IC50 for PDE9.

For orientation: IC50 means the concentration that inhibits the measured activity by half. A higher IC50 goes with a need for much substance. Consider `C[C@@H]1CN(Cc2ncccn2)C[C@H]1c1nn2c(C3CCOCC3)ncc2c(=O)[nH]1`, for which, in assay [1], the IC50 is greater than 10000 nM.
Still for that read-out and setting: next, `C[C@@H]1CN(Cc2cnccn2)C[C@H]1c1nn2c(C3CCOCC3)ncc2c(=O)[nH]1`: 1000 nM.
`C[C@@H]1CN(Cc2cccc(F)c2)C[C@H]1c1nn2c(C3CCOCC3)ncc2c(=O)[nH]1` came in with an IC50 in assay [1] of less than 1000 nM. The Ratio IC50 in assay [2] and in assay [3] was greater than 1000 throughout.
